Reference: patent US11576985B2, “Contrast imaging agent with dissolved gas-evolving fluid” (BAYER HEALTHCARE LLC, priority 2015, dated 2023)
Read-outs that look alike come from different tables or passages of the source.

Assays:
[1] = humans, compared with rats; cited from earlier work
[2] = rats; cited from earlier work
[3] = Amount of xenon gas dissolved in water, blood and oil with increasing pressure, computed by Henry's Law; format: physicochemical
Source text: Dissolution of xenon gas in liquid, such as saline or other medical fluid, including an iodine X-ray contrast solution, provides a diagnostic contrast composition with a variety of available concentrations of xenon (mg) per mL of liquid based on a number of parameters, including pressure or presence of one or more concentration-augmenting compositions. For example, the concentration of the gas-evolving fluid in the carrier fluid may be dependent on pressure and temperature. In certain circumstances, it may be desirable to augment the concentration of the gas-evolving fluid beyond the carrying capacity of the carrier fluid at, for example, standard temperature and pressure. For example, according to Henry's Law, the amount of a gas dissolved in a liquid is proportional to the partial pressure of the gas in the volume of the liquid at a given temperature. Table 2 below uses the coefficients from Table 1 above to compute the amount of xenon gas that is dissolved in water, blood, and oil based on increasing pressure (from 1 atm to 30 atm).

[4] = 37 C., cited from earlier work

| SMILES | retention half-life [1] | retention half-life [2] | Amount of Gas Dissolved in the Liquid ([3]; blood, 1 atm) [mgmXe/ml] | Amount of Gas Dissolved in the Liquid ([3]; blood, 2 atm) [mgmXe/ml] | Amount of Gas Dissolved in the Liquid ([3]; blood, 4 atm) [mgmXe/ml] | Amount of Gas Dissolved in the Liquid ([3]; blood, 5 atm) [mgmXe/ml] | Amount of Gas Dissolved in the Liquid ([3]; blood, 30 atm) [mgmXe/ml] | Amount of Gas Dissolved in the Liquid ([3]; oil, 1 atm) [mgmXe/ml] | Amount of Gas Dissolved in the Liquid ([3]; oil, 2 atm) [mgmXe/ml] | Amount of Gas Dissolved in the Liquid ([3]; oil, 4 atm) [mgmXe/ml] | Amount of Gas Dissolved in the Liquid ([3]; oil, 5 atm) [mgmXe/ml] | Amount of Gas Dissolved in the Liquid ([3]; oil, 30 atm) [mgmXe/ml] | Amount of Gas Dissolved in the Liquid ([3]; saline, 1 atm) [mgmXe/ml] | Amount of Gas Dissolved in the Liquid ([3]; saline, 2 atm) [mgmXe/ml] | Amount of Gas Dissolved in the Liquid ([3]; saline, 4 atm) [mgmXe/ml] | Amount of Gas Dissolved in the Liquid ([3]; saline, 5 atm) [mgmXe/ml] | Amount of Gas Dissolved in the Liquid ([3]; saline, 30 atm) [mgmXe/ml] | bunsen constant ([4]; olive oil) | bunsen constant ([4]; seawater (*1.3 of pure water)) | bunsen constant ([4]; water) |
| --- | --- | --- | --- | --- | --- | --- | --- | --- | --- | --- | --- | --- | --- | --- | --- | --- | --- | --- | --- | --- |
| FC(F)(F)C(F)(F)C(F)(F)C(F)(F)C(F)(F)C(F)(F)C(F)(F)C(F)(F)Br [Perfluorooctylbromide] | shorter retention half-life in humans | about 6 hours |  |  |  |  |  |  |  |  |  |  |  |  |  |  |  |  |  |  |
| [Xe] [xenon] |  |  | 0.7603 | 1.521 | 3.041 | 3.801 | 22.81 | 9.942 | 19.88 | 39.77 | 49.71 | 298.2589 | 0.4971 | 0.9942 | 1.988 | 2.485 | 14.91 | 1.7 | 0.1105 | 0.085 |
